# Experimental data taken from patent US20230331601A1, “METHOD FOR WATER PURIFICATION AND SANITIZATION” (YISSUM RESEARCH DEVELOPMENT COMPANY OF THE HEBREW …, priority 2020, published 2023).
# How the values were obtained:
# Assay type in all cases: physicochemical
# [1] = Decolorization of Rhodamine B solution monitored with UV-Vis spectroscopy; conditions: 125 ppm RhB solution (Example 2 conditions)
# From the text: UV-Vis spectroscopy: 1800 UV spectrophotometer, Shimadzu, Japan.
# Rhodamine B (RhB) is a water-soluble chemical dye which is commonly used as a benchmark to assess the potency of oxidants to decompose organic pollutants in aqueous solution and measure the rate of degradation. De-colorization of RhB solution, that is, the disappearance of the characteristic intense pink color, is readily visible as the decomposition of the dye advances under the action of the tested oxidant and the oxidation reaction can be monitored with UV-Vis spectroscopy. […] Decolorization of 1000 ppm and 125 ppm RhB solutions was completed within eleven minutes and two minutes, respectively, i.e., well before the end of the experiments.
# [2] = Degradation of carbamazepine by sodium hydroxide and hydrogen peroxide with phase transfer catalyst and added oxygen (LC-MS)
# Experimental: A 50 ml round bottom flask equipped with a magnetic stirrer was charged with 10 ml of water polluted with 1-100 ppm of carbamazepine (concentrations of 1, 10 and 100 ppm were examined). Sodium hydroxide (0.5 g) was rapidly added followed by addition of 0.02 ml of a phase transfer catalyst (Aliquat 336) Next, 1 ml of aqueous hydrogen peroxide (30% solution) was introduced over 5 minutes. After the addition of hydrogen peroxide, the mixture was held under stirring and pure oxygen was bubbled to the system at a flow rate of 0.5 ml/min over 10 minutes. For each experiment, at the end of the process the final reaction mixture was extracted with 5 ml of Acetone: hexane solution (1:1) and carbamazepine remnant concentration was measured by LC-MS, QTOF 6520, manufactured by Agilent.
# [3] = Degradation of xylene by sodium hydroxide and hydrogen peroxide with Aliquat 336, with and without added oxygen (GC-FID)
# Experimental: Experiment A: In the reference experiment, a 50 ml round bottom flask equipped with a magnetic stirrer was charged with 10 ml of water polluted with 100 ppm of xylene. Sodium hydroxide (0.5 g) was rapidly added followed by addition of 0.02 ml of a phase transfer catalyst (Aliquat 336) Next, 1 ml of aqueous hydrogen peroxide (30% solution) was introduced over 5 minutes. After the addition of hydrogen peroxide solution has been completed, the mixture was held under stirring for ten minutes.
# Experiment B: To assess the effect of added oxygen, the procedure set forth above was repeated but after the addition of hydrogen peroxide, pure oxygen was bubbled to the system at a flow rate of 1 ml/min over 30 minutes. Upon completion of O2 addition, the mixture was stirred for ten minutes.
# For each experiment, samples (0.5 ml) were taken from the reaction mixture at intervals of one minute during the ten minutes hold time and the concentration of remnant xylene was measured by GC-FID. The final reaction mixture was extracted with dichloromethane (10 ml) and analyzed by GC-FID as previously described.
compound,measurement,setting,value
CCN(CC)c1ccc2c(-c3ccccc3C(=O)O)c3ccc(=[N+](CC)CC)cc-3oc2c1.[Cl-] [Rhodamine B],Time to complete decolorization,[1],two
NC(=O)N1c2ccccc2C=Cc2ccccc21 [carbamazepine],conversion rate,[2]; 1 ppm carbamazepine in water,~ 70%
same,conversion,[2]; 10 ppm carbamazepine in water,> 90%
same,conversion,[2]; 100 ppm carbamazepine in water,> 90%
same,removal rates,[2]; low pollution level of 1 to 10 ppm,70 to 90%
Xylene,Hold time to reach complete oxidation of the pollutant,"[3]; Experiment A: 100 ppm xylene, absence of added oxygen",ten
same,Hold time to reach complete oxidation of the pollutant,"[3]; Experiment B: 100 ppm xylene, with added oxygen 1 ml/min over 30 minutes",about six
